# Assay results from patent publication US9789130B2, “Method for blocking HIV entry into dendritic cells by inhibiting sialoadhesin-sialyllactose binding interactions with gangliosides” (LABORATORIOS DEL DR. ESTEVE, S.A., priority 2011, dated 2017).
# What was measured:
# [1] = biological target: T1, Siglec-1 (Homo sapiens, UniProt Q9BZZ2); experiment: VLP capture by Siglec-1 transfected Raji B cells; format: cell-based; details: mAbs 10 μg/ml; sialyllactose at indicated concentrations, 30 min prior to VLP pulse
# Protocol: Raji cells (2×10^6) were transfected with vector backbone pCMV6-Entry (Origene) comprising the coding region of Siglec-1, Siglec-5, or Siglec-7 using Amaxa nucleofector as recommended by the manufacturer. At 36 h posttransfection, cells were assessed for VLP capture and HIV-1 trans-infection (at a ratio 2:1) as described above. When indicated, cells were pre-incubated with decreasing concentrations of 3′-Sialyllactose (Carbosynth) or Lactose (Sigma-Aldrich) 30 min prior to VLP pulse. In experiments with envelope-deficient viruses, 5×10^5 cells were pulsed with 100 ng of p24^Gag estimated by ELISA for 4 h at 37° C. and assessed for capture and trans-infection (at a ratio 2:1) as aforementioned. HEK-293T cells were transfected using Fugene HD (Promega) and assessed 24 h posttransfection as described for Raji cells. Trans-infection of HEK-293T was tested in a different luminometer (Luminoskan Ascent, Thermo Labsystems), and collected data were normalized to 100%. Transfection efficiency in both cell types was assessed staining cells with anti-Siglec-1-PE 7-239 mAb, anti-Siglec-7-PE 5-386 mAb (AbD Serotec), and anti-Siglec-5/14-PE 1A5 mAb (Biolegend) and evaluated by FACS. Stable Raji DC-SIGN cells were labeled with anti-DC-SIGN-PE DCN46 mAb (BD Pharmigen).
# [2] = biological target: T1, Siglec-1; experiment: VLP capture by LPS mDCs pre-incubated with α-Siglec-1 mAbs; format: cell-based; set-up: Siglec-1 expressed in LPS mDCs capture distinct ganglioside containing vesicles; endogenous in cells; host or cells: LPS-matured monocyte-derived dendritic cells (LPS mDCs) from donor PBMCs; details: 2 μg/ml mAb 7D2 treated with at least 100-fold molar excess of human recombinant protein
# Protocol: FIG. 11. Siglec-1 expressed in LPS mDCs capture distinct ganglioside containing vesicles, such as HIV-1 viral-like particles, liposomes, and exosomes. Capture of VLPHIV-Gag-eGFP by LPS mDCs that had been pre-incubated with decreasing concentrations of α-Siglec-1 mAb 7D2 before VLP exposure for 30 min at 37° C.
# FIG. 12. Capture of VLPHIV-Gag-eGFP by LPS mDCs that had been pre-incubated with or without 2 μg/ml of α-Siglec-1 mAb 7D2 previously treated or not with at least a 100-fold molar excess of the indicated human recombinant proteins. Of note, Siglec-14 shares 100% of amino acid homology with Siglec-5 in the V-set domain.
# FIG. 13. Blocking effect of α-Siglec-1 mAb 7-239. (A) Capture of VLPHIV-Gag-eGFP by LPS mDCs that had been pre-incubated with decreasing concentrations of α-Siglec-1 mAb 7-239 before VLP exposure for 30 min at 37° C. […] (B) Capture of VLPHIV-Gag-eGFP by LPS mDCs that had been pre-incubated with 10 μg/ml of the indicated mAbs before VLP exposure for 3 h at 37° C.
# [3] = tested on: mDCs; experiment: Lactose and GM3 polar head group treatment of mDCs before LUV/VLP capture; format: cell-based, human; details: mDCs pre-incubated with 5 to 10 mM compound, relative to mock-treated mDCs
# Protocol: mDCs were preincubated with or without 5 or 10 mM of lactose (Sigma-Aldrich Co., Saint Louis, Mo., US) and soluble GM3 carbohydrate head group (Carbosynth Ltd., Compton, Berkshire, GB) for 30 min at RT. Cells were then pulsed with 50 μM of GM3-containing LUVHIv-tRed and 75 ng of sucrose-pelleted VLPHIv-Gag-eGFP Gag for 2 h at 37° C., at a final concentration of 5 or 10 mM for the compounds tested. Cells were analyzed by FACS as described previously.
# T1 sequence (Q9BZZ2 20-1709): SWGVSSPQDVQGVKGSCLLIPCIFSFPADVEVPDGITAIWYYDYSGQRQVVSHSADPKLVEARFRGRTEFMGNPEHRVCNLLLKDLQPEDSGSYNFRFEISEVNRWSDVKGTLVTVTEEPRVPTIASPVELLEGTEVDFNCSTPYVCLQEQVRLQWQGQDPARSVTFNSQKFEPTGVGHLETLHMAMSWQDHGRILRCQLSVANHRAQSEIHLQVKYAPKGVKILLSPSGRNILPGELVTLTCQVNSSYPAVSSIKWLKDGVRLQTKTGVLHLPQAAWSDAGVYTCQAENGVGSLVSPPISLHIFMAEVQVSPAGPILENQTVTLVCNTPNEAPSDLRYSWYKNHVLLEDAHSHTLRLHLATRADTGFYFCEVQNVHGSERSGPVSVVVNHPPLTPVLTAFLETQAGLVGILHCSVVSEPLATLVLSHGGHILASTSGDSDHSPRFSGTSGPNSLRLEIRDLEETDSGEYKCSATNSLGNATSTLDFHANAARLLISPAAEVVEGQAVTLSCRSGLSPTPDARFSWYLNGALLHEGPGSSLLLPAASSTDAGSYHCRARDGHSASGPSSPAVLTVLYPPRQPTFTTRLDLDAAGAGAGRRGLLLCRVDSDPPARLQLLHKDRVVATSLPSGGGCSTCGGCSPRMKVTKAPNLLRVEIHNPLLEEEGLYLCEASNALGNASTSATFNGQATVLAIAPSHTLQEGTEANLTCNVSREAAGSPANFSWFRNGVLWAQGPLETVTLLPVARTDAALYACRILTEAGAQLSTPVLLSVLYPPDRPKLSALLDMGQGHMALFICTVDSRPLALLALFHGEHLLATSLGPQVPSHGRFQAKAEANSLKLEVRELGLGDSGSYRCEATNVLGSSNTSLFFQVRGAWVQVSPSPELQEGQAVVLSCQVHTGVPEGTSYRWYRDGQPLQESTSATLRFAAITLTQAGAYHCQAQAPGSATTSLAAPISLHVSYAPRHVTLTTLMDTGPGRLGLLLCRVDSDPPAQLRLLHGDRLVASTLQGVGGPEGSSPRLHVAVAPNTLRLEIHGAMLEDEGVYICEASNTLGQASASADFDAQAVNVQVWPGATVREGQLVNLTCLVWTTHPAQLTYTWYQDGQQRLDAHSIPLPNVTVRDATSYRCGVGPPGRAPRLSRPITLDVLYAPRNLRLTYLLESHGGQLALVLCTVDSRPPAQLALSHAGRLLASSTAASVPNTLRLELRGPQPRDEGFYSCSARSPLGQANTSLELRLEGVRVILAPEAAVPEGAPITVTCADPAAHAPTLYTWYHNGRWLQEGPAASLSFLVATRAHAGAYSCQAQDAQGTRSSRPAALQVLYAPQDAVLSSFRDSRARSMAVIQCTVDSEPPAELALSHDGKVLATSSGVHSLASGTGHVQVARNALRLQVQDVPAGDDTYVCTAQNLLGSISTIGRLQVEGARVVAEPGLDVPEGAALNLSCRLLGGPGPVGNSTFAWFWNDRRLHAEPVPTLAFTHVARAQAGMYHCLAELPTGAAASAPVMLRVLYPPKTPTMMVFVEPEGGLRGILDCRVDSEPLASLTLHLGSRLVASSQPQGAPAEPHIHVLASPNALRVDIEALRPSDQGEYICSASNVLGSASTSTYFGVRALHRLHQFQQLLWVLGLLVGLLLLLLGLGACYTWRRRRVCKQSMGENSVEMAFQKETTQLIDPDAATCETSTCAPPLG
molecule,measurement,setting,value
"CC(=O)N[C@H]1[C@H]([C@H](O)[C@H](O)CO)O[C@@](O[C@H]2[C@@H](O)[C@@H](CO)O[C@@H](O[C@H]3[C@H](O)[C@@H](O)C(O)O[C@@H]3CO)[C@@H]2O)(C(=O)O)C[C@@H]1O (stereo partly drawn) [sialyllactose, 3′-Sialyllactose]",VLPHIV-Gag-eGFP capture by Siglec-1 transfected Raji cells after pre-incubation with inhibitor,[1],blocked VLP capture
purified Siglec-1: human recombinant Siglec-1 protein used to pre-treat mAb 7D2,VLP capture by LPS mDCs with mAb 7D2 pre-incubated with purified protein,[2],completely restored VLP capture
CC(=O)N[C@H]1[C@H]([C@H](O)[C@H](O)CO)O[C@@](O[C@H]2[C@@H](O)[C@@H](CO)O[C@@H](O[C@H]3[C@H](O)[C@@H](O)C(O)O[C@@H]3CO)[C@@H]2O)(C(=O)O)C[C@@H]1O (stereo partly drawn) [soluble GM3],capture of GM3-containing LUVHIV-tRed by mDCs in the presence of soluble carbohydrate,[3],completely blocked
same,capture of VLPHIV-Gag-eGFP by mDCs in the presence of soluble carbohydrate,[3],completely blocked
same,capture of GM3-containing LUVHIV-tRed by mDCs in the presence of soluble carbohydrate,[3]; listed as GM3 polar head group,captured less particles
same,capture of VLPHIV-Gag-eGFP by mDCs in the presence of soluble carbohydrate,[3]; listed as GM3 polar head group,captured less particles
